These results are taken from patent US5538712A, “Cyclopentadienylcarbonyl 99MTC complexes, process for their production as well as their use in diagnostics” (Institut Fur Diagnostikforschung GmbH/an der Freien …, priority 1990, dated 1996).

The nature of series [1]: Organ distribution of Tc-labeled cytectrene derivatives vs pertechnetate (FIG. 1). Format: in vivo, mice and rats, partially rabbits. The following applies: pertechnetate for comparison. Here is the method:
(§1) The organ distributions in mice and rats as well as partially in rabbits were tested by the technetium-labeled cytectrene derivatives. The organ distribution of the ^99m Tc-labeled cytectrene derivatives is a function of the substituent on the cyclopentadienyl ring system.
FIG. 1 indicates the organ distribution of various cytectrene derivatives. For comparison, the organ distribution of pertechnetate was also recorded in this table. From the organ concentrations, it can clearly be recognized that the organ distribution of the cytectrene derivatives drastically differs from the distribution after administration of pertechnetate. With pertechnetate, the organ with the highest radioactivity concentration is blood (2.6% of dose/% body weight). On the other hand, the ^99m Tc cytectrene derivatives show a pronounced affinity for other, respectively different organs. The affinity for the individual organ is clearly dependent on the side chain of the cytectrene compound.

The nature of series [2]: Organ distribution in mice of 99mTc-acetylcymantrene. Format: in vivo. How it is done: as §1
Series [3] is described as follows: Chemical stability, decomposition by chromatography. The following applies: after 24 hours, chromatographically. The class given is physicochemical. An excerpt:
This lipophilic ^99m Tc-compound can be obtained in pure form by elution of the corresponding silica gel fraction (RF =0.36), e.g., with ethanol. The radiochemical purity is established by rechromatography of the eluate.

For series [4] the following is noted: cited from earlier work.
The nature of series [5]: In vivo SPECT study of cerebral blood flow in rabbits. Set-up: species or system rabbits (New Zealander). As to conditions: for contrast [brain/background]: rabbit SPECT, 8 minutes p.i., 15 minutes p.i.; for contrast [brain/background] / cerebral uptake: HM-PAO 59 MBq, cytectrene 14 MBq; for cerebral uptake: rabbit, i.v., test from 8 minutes p.i., from 15 minutes p.i., 2400 seconds. Here is the method:
In an in vivo study on rabbits (New Zealander, breeding by Schering AG Berlin, approximately 4 kg, male), the cerebral blood flow of commercially available HM-PAO was compared with the N-methyl-piperidin-4-ol-cytectrenecarboxylic acid ester (produced analogously to example 6).
The study was made with a SPECT camera of Apex 409 type.
After nembutal anesthesia, the animal was intravenously administered 1 ml of an isotonic, aqueous, sterile solution of ^99m Tc-HMPAO or said cytectrene derivative.
The recording technique and the results are described by the following table.

The conditions of series [6]: clinical use, because of insufficient stability; cited from earlier work.
A short description of series [7]: 99mTc concentration in rat brain and brain/blood concentration quotient (FIGS. 2 and 3). The class given is in vivo. How it is done: FIG. 2 graphically illustrates the results of tests on ^99m Tc concentration in the brain (% dose/% weight). In the experiments, the rats (n=4) intravenously received about 5 μCi of the Tc-99-labeled ester dissolved in 0.1 ml of EtOH/0.9% NaCl per animal. The esters, i.e., 4-pip-ester, 3-pip-ester and quin.-ester, were obtained from cytectrene-carboxylic acid and the following, respectively: 4-hydroxy-N-(methyl)-piperidine, 3-hydroxy-N-(methyl)-piperidine and 3-quinuclidinol. 15 minutes after HM-PAO administration, the brain concentration is at 1.7% dose/% weight. […] The rats (n=4) intravenously received about 5 μCi of the Tc-99-labeled ester dissolved in 0.1 ml of EtOH/0.9% NaCl per animal. The esters tested were obtained from cytectrenecarboxylic acid and 4-hydroxy-N-(methyl)-piperidine, 3-hydroxy-N-(methyl)-piperidine and 3-quinuclidinol, respectively. 15 minutes after HM-PAO administration, the brain/blood quotient is at 1.5:1.

Read-outs that look alike come from different tables or passages of the source.

On to `[O]=[99Tc](=[O])(=[O])[O-]` [pertechnetate, ^99m Tc-pertechnetate], for which the “radioactivity concentration in blood (organ with the highest concentration)” value in series [1] is 2.6 % of dose/% body weight.
In the case of `CC(=O)[C]1([Tc](=[C]=O)(=[C]=O)=[C]=O)C=CC=C1` [Example 1a, Tc-99m Acetyl-cytectrene], the organ distribution entry in series [2] is “preferred concentration in liver and suprarenal glands”. Besides, the “chemical stability of the labeled compound” value in series [3] was “chemically stable, since after 24 hours, no decomposition is chromatographically detectable”; in series [3] (listed as Example 1b) it was “chemically stable, after 24 hours, no decomposition is chromatographically detectable”.
For the molecule `C/C(=N\O)C(C)NCC(C)(C)CNC(C)/C(C)=N/O` (centres unmarked) [HM-PAO, hexamethyl-propylenamine oxime], the “concentration in the brain” value in series [4] (comparable measurements for known compounds, L. Bacciottini et al. 1990) is on record as “around 1.7 % dose/% body weight”. Moreover, the “99mTc concentration in the brain” value in series [4] (rat, 15 minutes after HM-PAO administration) was 1.7 % dose/% weight. In addition, in series [5], the “contrast [brain/background]” value was 0.98 and the cerebral uptake was 5.9 % of the administered activity. In series [6], the “time after labeling within which it has to be administered” value is at most 30 min.
Consider “cyclopentadienylcarboxylic acid-(N-methyl-piperidinol)-4-ester-^99m technetium-tricarbonyl complex”, for which, in series [5], the “contrast [brain/background]” value amounted to 0.98 and the cerebral uptake was 7.5 % of the administered activity. Further, the “visual delimitability of the brain in SPECT tests” value in series [5] (rabbits, 14 MBq, compared with HM-PAO complex) was “more clearly visual delimitability of the brain in SPECT tests”. Further, the “concentration ratio of brain/blood, improvement factor over HM-PAO” value in series [7] (compared with HM-PAO complexes) is about 10 factor. Moreover, in series [7] (i.v., about 5 μCi), the “concentration in the brain” value is reported as “about 4 % dose/% body weight”.
